According to patent US9884122B2, “Small molecule drug conjugates” (Philochem AG, priority 2014, dated 2018):
Read-outs that look alike come from different tables or passages of the source.

Experiments:
CAIX = target: T1, CAIX (Homo sapiens, UniProt Q16790); assay: Affinity determination of CAIX ligands by fluorescence polarization; assay type: binding; conditions: PBS pH 7.4, 22° C., 1 h; read-out: Kd by fluorescence polarization in solution
T1 construct: His6; made in house
Description: Fluorescein labelled ligands (5 nM diluted with PBS from DMSO stocks, final DMSO content adjusted to 0.001%) were incubated at 22° C. for 1 h in a black 384-well plate (Greiner, non-binding) in PBS (pH 7.4) with increasing concentrations of CAIX to a final volume of 60 μl. The fluorescence anisotropy was measured on a Spectra Max Paradigm multimode plate reader (Molecular Devices). Experiments were performed in triplicate and the mean anisotropy values fitted to the following equation using KaleidaGraph 4.1.3 (Synergy Software),
[formula] where A is the anisotropy, [P]0 the total protein concentration, [L]0 the total concentration of the fluorescently labelled ligand and KD the dissociation constant.

[1] = test system: subcutaneous SKRC52 tumors; conditions: mouse, in vivo
[2] = test system: subcutaneous SKRC52 tumors
in vivo = conditions: balb/c nu/nu, mouse, iv
[3] = test system: CAIX positive SKRC52 cells; assay: Ligand internalization analysis by flow cytometry, SKRC52; assay type: cell-based, human
Description: SKRC52 or A549 cells were seeded in 6-well plates in their appropriate culture medium (2 mL) at a density of 1.5×10^5 cells per well and allowed to grow for 24 h under culture conditions. The medium was replaced with medium containing IRDye750 (Licor) labeled probes 1c or 6c (2 mL, 30 nM) and plates incubated for 1, 2 or 4 h under standard culture conditions. After washing with PBS pH 7.4 (2×2 mL), Trypsin-EDTA 0.05% (500 μL, Invitrogen) was added and plates incubated under standard culture conditions for 15 min Medium (500 μL) was added, cells pelleted and resuspended in PBS pH 7.4 containing 1% v/v FCS (150 μL). After incubating for 15 min on ice, cells were labeled for 30 min on ice with rabbit anti human CAIX IgG (1:100, Santa Cruz) in PBS pH 7.4 containing 1% FCS (150 μL), washed with PBS pH 7.4 containing 1% FCS (2×150 μL) and labeled for 30 min on ice with goat anti rabbit IgG Alexa488 conjugate (1:100, Invitrogen) in PBS pH 7.4 containing 1% FCS (150 μL). After washing with PBS pH 7.4 containing 1% FCS (2×150 μL), cells were pelleted and resuspended in PBS pH 7.4 containing 1% v/v FCS and propidium iodide (300 μL, 1 μg mL^−1, Invitrogen) and analyzed on a FACS Canto flow cytometer (BD Bioscience). FlowJo Version 8.7 (Treestar) was used for data analysis and visualization. To inhibit uptake mechanisms, cells were pre-incubated with medium containing 0.2% NaN3 for 1 h and the NaN3 concentration maintained throughout the entire experiment. Alternatively, all steps were performed at 0° C. or an excess of AAZ (100 μM) was added to the culture medium.

[4] = test system: CAIX expressing SKRC52 cells; assay: Ligand binding analysis by flow cytometry, SKRC52; assay type: cell-based, human; conditions: 30 nM dye conjugate, 1 h at 0° C., washed
Description: Cells were detached from culture plates using a 50 mM EDTA solution in phosphate buffered saline (PBS) pH 7.4, counted and suspended to a final concentration of 1.5×10^6 cells mL^−1 in a 1% v/v solution of FCS in PBS pH 7.4. Aliquots of 3×10^5 cells (200 μL) were spun down and resuspended in solutions of IRDye750 (Licor) labeled ligands (30 nM) in a 1% v/v solution of FCS in PBS pH 7.4 (200 μL) and incubated on ice for 1 h. Cells were washed once with 200 μL 1% v/v solution of FCS in PBS pH 7.4 (200 μL), spun down, resuspended in 1% v/v solution of FCS in PBS pH 7.4 (300 μL) and analyzed on a FACS Canto flow cytometer (BD Bioscience). FlowJo Version 8.7 (Treestar) was used for data analysis and visualization. Results were as follows: • (1) Flow cytometry analysis of binding of ligand-IRDye750 conjugates 1c-6c (FIG. 1) to CAIX expressing SKRC52 cells.
Flow cytometry was performed as described above with monovalent and bivalent near infrared dye conjugates B3 and B4 and negative control conjugates lacking the ligand on CAIX-positive SKRC52 cells and CAIX-negative HEK cells^5.

Kd (CAIX) [nM] | SMILES | tumor to heart ratio [1] | tumor-to-blood ratio [1] | tumor-to-organ ratio, kidneys [1] | tumor-to-organ ratio, liver [1] | tumor-to-blood ratio ([1]; iv) | tumor visibility by near infrared imaging ([2]; 1 nmol intravenous, 1 h) | tumor targeting by near infrared imaging ([2]; 3 nmol intravenous, 1-12 h) | half-life (in vivo) [h] | internalization with extended incubation time ([3]; 30 nM at 37° C., 2 h and 4 h versus 1 h) | internalization under conditions inhibiting uptake ([3]; 30 nM, 0.2% w/v NaN3, same with excess AAZ or at 0° C.) | internalization: fluorescence after trypsin detachment ([3]; 30 nM, 1 h at 37° C.) | binding to SKRC52 cells (fluorescence shift) [4]
0.2 ± 0.1 | CC(CCC(=O)N[C@@H](CC(=O)N[C@@H](CC(=O)N[C@@H](CCCCn1cc(CCCC(=O)Nc2nnc(S(N)(=O)=O)s2)nn1)C(=O)NCCOCCOCCN)C(=O)O)C(=O)O)(c1ccc(O)cc1)c1ccc(O)cc1 [Compound C5a, N-[4,4-bis(4-hydroxyphenyl)pentanoyl]-β-aspartyl-β-aspartyl-N-{2-[2-(2-aminoethoxy)ethoxy]ethyl}-6-(4-{4-oxo-4-[(5-sulfamoyl-1,3,4-thiadiazol-2-yl)amino]butyl}-1H-1,2,3-triazol-1-yl)-L-norleucinamide] | – | – | – | – | – | – | – | – | – | – | – | –
– | CC1(C)C(/C=C/C2=C(c3ccc(CCCCC(=O)NCCOCCOCCNC(=O)CCC(=O)Nc4nnc(S(N)(=O)=O)s4)cc3)C(=C/C=C3/N(CCCCS(=O)(=O)O)c4ccc(S(=O)(=O)[O-])cc4C3(C)C)/CCC2)=[N+](CCCCS(=O)(=O)O)c2ccc(S(=O)(=O)O)cc21 [Compound 1c, N1-(2-(2-(2-aminoethoxy)ethoxy)ethyl)-N4-(5-sulfamoyl-1,3,4-thiadiazol-2-yl)succinamide IRDye750 conjugate] | 27.6:1 | 79.2:1 | 1.4:1 | 0.2:1 | 13.8:1 | the tumor could clearly be seen against background | gave good tumor to background contrast | ~1 | did not see a markedly increased signal | fluorescent signal was shifted to baseline | higher fluorescence intensity than cells treated with non-binding conjugate 6c or untreated cells | binds strongly enough to result in a strong fluorescence shift after washing of cells
